Source: patent US6737383B1, “Herbicidal oxadiazolidines” (priority 1999, dated 2004)

Columns and labels:
rape = assay: Test B pre/postemergence rape; type: in vivo, Brassica napus
In short: (§1)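 Herbicidal effect was estimated by eye on a ten-point control scale after plants spent twelve to sixteen days in a greenhouse following soil or foliar treatment. Foliar sprays targeted plants at one to four leaves; all doses were formulated in a non-phytotoxic solvent with surfactant.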

cocklebur = assay: Test B pre/postemergence cocklebur; type: in vivo, Xanthium strumarium
In short: as §1

wheat = assay: Test B pre/postemergence wheat; type: in vivo, Triticum aestivum
In short: as §1

velvetleaf = assay: Test B pre/postemergence velvetleaf; type: in vivo, Abutilon theophrasti
In short: as §1

soybean = assay: Test B pre/postemergence soybean; type: in vivo, Glycine max
In short: as §1

bedstraw = assay: Test B pre/postemergence bedstraw; type: in vivo, Galium aparine
In short: as §1

wild oat = assay: Test B pre/postemergence wild oat; type: in vivo, Avena fatua
In short: as §1

pigweed = assay: Test B pre/postemergence pigweed; type: in vivo, Amaranthus retroflexus
In short: as §1

giant foxtail = assay: Test B pre/postemergence giant foxtail; type: in vivo, Setaria faberii
In short: as §1

blackgrass = assay: Test B pre/postemergence blackgrass; type: in vivo, Alopecurus myosuroides
In short: as §1

sugar beet = assay: Test B pre/postemergence sugar beet; type: in vivo, Beta vulgaris
In short: as §1

crabgrass = assay: Test B pre/postemergence crabgrass; type: in vivo, Digitaria sanguinalis
In short: as §1

morningglory = assay: Test B pre/postemergence morningglory; type: in vivo, Ipomoea hederacea
In short: as §1

corn = assay: Test B pre/postemergence corn; type: in vivo, Zea mays
In short: as §1

surinam grass = assay: Test B pre/postemergence surinam grass; type: in vivo, Brachiaria decumbens
In short: as §1

purple nutsedge = assay: Test B pre/postemergence purple nutsedge; type: in vivo, Cyperus rotundus
In short: as §1

[1] = Postemergence, Rate 62 g/ha, scale 0 to 10, 0 is no effect, 10 is complete control
[2] = Postemergence, Rate 125 g/ha, scale of 0 to 10 where 0 is no effect and 10 is complete control
[3] = Preemergence, Rate 125 g/ha, scale of 0 to 10 where 0 is no effect and 10 is complete control
[4] = Preemergence, Rate 250 g/ha, scale 0 (no effect) to 10 (complete control)
[5] = Rate 62 g/ha, Preemergence, scale 0 to 10
[6] = Rate 250 g/ha, Postemergence, scale 0 to 10, 0 is no effect, 10 is complete control
[7] = Rate 500 g/ha, Postemergence, scale 0 to 10, 0 is no effect, 10 is complete control
[8] = Rate 500 g/ha, Preemergence, scale 0 to 10 (0 no effect, 10 complete control)

CC(C)N(C(=O)n1oc(=O)n(C[C@H](C)Cl)c1=O)c1ccccc1 [Compound 747]
4: Plant response rating, Rape (rape; [1]) | Rape plant response rating (rape; [2]) | Rape plant response rating (rape; [6]) | Cocklebur plant response rating (cocklebur; [7]) | Wheat plant response rating (wheat; [6]) | Wheat plant response rating (wheat; [7]) | Velvetleaf plant response rating (velvetleaf; [2]) | Velvetleaf plant response rating (velvetleaf; [5]) | Velvetleaf plant response rating (velvetleaf; [6]) | Plant response rating, Soybean (soybean; [1]) | Soybean plant response rating (soybean; [2]) | Plant response rating, Redroot pigweed (pigweed; [1]) | Redroot pigweed plant response rating (pigweed; [2]) | Sugarbeets plant response rating (sugar beet; [5]) | Corn plant response rating (corn; [6]) | B. signalgrass plant response rating (surinam grass; [6]) | Nutsedge plant response rating (purple nutsedge; [4])
10: Rape plant response rating (rape; [4]) | Plant response rating, Giant foxtail (giant foxtail; [3]) | Giant foxtail plant response rating (giant foxtail; [4]) | Giant foxtail plant response rating (giant foxtail; [5]) | Giant foxtail plant response rating (giant foxtail; [8]) | Plant response rating, Crabgrass (crabgrass; [3]) | Crabgrass plant response rating (crabgrass; [4]) | Crabgrass plant response rating (crabgrass; [5]) | Crabgrass plant response rating (crabgrass; [8]) | Morningglory plant response rating (morningglory; [6]) | Morningglory plant response rating (morningglory; [7])
6: Plant response rating, Velvetleaf (velvetleaf; [3]) | Plant response rating, Sugarbeets (sugar beet; [3]) | Corn plant response rating (corn; [4]) | B. signalgrass plant response rating (surinam grass; [7])
8: Soybean plant response rating (soybean; [7]) | Plant response rating, Bedstraw (bedstraw; [1]) | Bedstraw plant response rating (bedstraw; [2]) | Redroot pigweed plant response rating (pigweed; [4]) | Redroot pigweed plant response rating (pigweed; [5]) | Redroot pigweed plant response rating (pigweed; [7]) | Plant response rating, Giant foxtail (giant foxtail; [1]) | Plant response rating, Blackgrass (blackgrass; [3]) | Blackgrass plant response rating (blackgrass; [5]) | Blackgrass plant response rating (blackgrass; [6]) | Blackgrass plant response rating (blackgrass; [7]) | Blackgrass plant response rating (blackgrass; [8]) | Plant response rating, B. signalgrass (surinam grass; [3])
0: Plant response rating, Cocklebur (cocklebur; [1]) | Cocklebur plant response rating (cocklebur; [2]) | Cocklebur plant response rating (cocklebur; [4]) | Cocklebur plant response rating (cocklebur; [5]) | Cocklebur plant response rating (cocklebur; [8]) | Plant response rating, Wheat (wheat; [1]) | Wheat plant response rating (wheat; [2]) | Wheat plant response rating (wheat; [4]) | Wheat plant response rating (wheat; [5]) | Plant response rating, Velvetleaf (velvetleaf; [1]) | Plant response rating, Soybean (soybean; [3]) | Soybean plant response rating (soybean; [4]) | Soybean plant response rating (soybean; [5]) | Plant response rating, Bedstraw (bedstraw; [3]) | Bedstraw plant response rating (bedstraw; [5]) | Bedstraw plant response rating (bedstraw; [8]) | Plant response rating, Wild oats (wild oat; [1]) | Wild oats plant response rating (wild oat; [2]) | Plant response rating, Sugarbeets (sugar beet; [1]) | Sugarbeets plant response rating (sugar beet; [2]) | Sugarbeets plant response rating (sugar beet; [6]) | Plant response rating, Morningglory (morningglory; [3]) | Morningglory plant response rating (morningglory; [4]) | Morningglory plant response rating (morningglory; [5]) | Plant response rating, Corn (corn; [1]) | Corn plant response rating (corn; [2]) | Plant response rating, Nutsedge (purple nutsedge; [1]) | Nutsedge plant response rating (purple nutsedge; [2]) | Nutsedge plant response rating (purple nutsedge; [5]) | Nutsedge plant response rating (purple nutsedge; [6]) | Nutsedge plant response rating (purple nutsedge; [7])
7: Rape plant response rating (rape; [5]) | Velvetleaf plant response rating (velvetleaf; [4]) | Velvetleaf plant response rating (velvetleaf; [7]) | Velvetleaf plant response rating (velvetleaf; [8]) | Soybean plant response rating (soybean; [6]) | Redroot pigweed plant response rating (pigweed; [6]) | Blackgrass plant response rating (blackgrass; [2]) | Sugarbeets plant response rating (sugar beet; [4]) | Morningglory plant response rating (morningglory; [8]) | B. signalgrass plant response rating (surinam grass; Preemergence, Rate 62 g/ha, scale of 0 to 10 where 0 is no effect and 10 is complete control)
1: Plant response rating, B. signalgrass (surinam grass; [1])
5: Plant response rating, Blackgrass (blackgrass; [1]) | Corn plant response rating (corn; [7])
9: Plant response rating, Rape (rape; [3]) | Rape plant response rating (rape; [7]) | Soybean plant response rating (soybean; [8]) | Giant foxtail plant response rating (giant foxtail; [2]) | Giant foxtail plant response rating (giant foxtail; [6]) | Giant foxtail plant response rating (giant foxtail; [7]) | Crabgrass plant response rating (crabgrass; [2]) | Crabgrass plant response rating (crabgrass; [6]) | Crabgrass plant response rating (crabgrass; [7]) | Morningglory plant response rating (morningglory; [2]) | Corn plant response rating (corn; [8]) | B. signalgrass plant response rating (surinam grass; [8])
2: Cocklebur plant response rating (cocklebur; [6]) | Wild oats plant response rating (wild oat; [6]) | Wild oats plant response rating (wild oat; [7]) | Plant response rating, Morningglory (morningglory; [1]) | Plant response rating, Corn (corn; [3]) | Corn plant response rating (corn; [5]) | Plant response rating, Nutsedge (purple nutsedge; [3]) | Nutsedge plant response rating (purple nutsedge; [8])
3: Wild oats plant response rating (wild oat; [4]) | Wild oats plant response rating (wild oat; [5]) | Sugarbeets plant response rating (sugar beet; [7]) | Plant response rating, Crabgrass (crabgrass; [1]) | B. signalgrass plant response rating (surinam grass; [2])
